Among the data in US10988459B2 (priority 2015, dated 2021) are Ki values, retold here.

The target in this test is human RIP1 kinase domain (2-375) (Homo sapiens (Human), UniProt Q13546). In words: biochemical. The format is biochemical. The procedure, abridged: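 50 nM purified kinase domain from baculovirus-infected insect cells, incubated 2 h with compound in 50 mM Hepes pH 7.5, 30 mM MgCl2, 1 mM DTT, 50 uM ATP, 0.002% Brij-35, 0.5% DMSO. ADP formation read by Transcreener FP at 633 nm excitation. Ki^app fitted with the Morrison tight-binding equation.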
Chain of human RIP1 kinase domain (2-375) (Q13546 2-375): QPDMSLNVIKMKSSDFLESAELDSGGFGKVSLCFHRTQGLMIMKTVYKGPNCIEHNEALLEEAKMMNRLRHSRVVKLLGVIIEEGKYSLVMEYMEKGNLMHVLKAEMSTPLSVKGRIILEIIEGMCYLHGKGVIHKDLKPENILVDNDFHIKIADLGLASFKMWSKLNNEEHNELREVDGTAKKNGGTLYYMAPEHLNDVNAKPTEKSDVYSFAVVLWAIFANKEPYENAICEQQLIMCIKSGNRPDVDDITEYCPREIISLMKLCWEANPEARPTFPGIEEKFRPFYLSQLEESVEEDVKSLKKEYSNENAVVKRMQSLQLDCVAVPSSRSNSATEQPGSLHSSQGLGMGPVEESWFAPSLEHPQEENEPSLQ

The mark [1] stands for this setting: Table 5, apparent Ki (Morrison tight-binding fit), 50 nM RIP1 kinase domain, 50 uM ATP, 2 hours incubation, read-out: Ki.

Where two headings read alike, the source gives them in different places.

For `CN1C(=O)[C@@H](NC(=O)c2cc3n(n2)CCC[C@@H]3c2ccccc2F)COc2ccccc21` [Example 709, (4R)-4-(2-fluorophenyl)-N-[(3S)-5-methyl-4-oxo-2,3-dihydro-1,5-benzoxazepin-3-yl]-4,5,6,7-tetrahydropyrazolo[1,5-a]pyridine-2-carboxamide], under setting [1], the Ki was determined as 0.034 µM. Consider `CN1C(=O)[C@@H](NC(=O)c2cc3n(n2)CCC[C@H]3c2ccccc2F)COc2ccccc21` [Example 710, (4S)-4-(2-fluorophenyl)-N-[(3S)-5-methyl-4-oxo-2,3-dihydro-1,5-benzoxazepin-3-yl]-4,5,6,7-tetrahydropyrazolo[1,5-a]pyridine-2-carboxamide], for which, under setting [1], the Ki worked out at 0.009 µM. For `CN1C(=O)[C@@H](NC(=O)c2cc3c(cn2)cnn3CCC(F)F)COc2ccccc21` [Example 711, 1-(3,3-difluoropropyl)-N-[(3S)-5-methyl-4-oxo-2,3-dihydro-1,5-benzoxazepin-3-yl]pyrazolo[4,3-c]pyridine-6-carboxamide], the Ki under setting [1] came out at 0.073 µM.

For `CN1C(=O)[C@@H](NC(=O)c2cc3c(-c4ccccc4)cccn3n2)COc2ccccc21` [Example 713, 4-phenyl-N-[(3S)-5-methyl-4-oxo-2,3-dihydro-1,5-benzoxazepin-3-yl]pyrazolo[1,5-a]pyridine-2-carboxamide], the Ki under setting [1] stood at 0.005 µM.

Consider `Cc1cc2n(n1)CC[C@H](NC(=O)c1cc3c(-c4ccccc4)cccn3n1)C(=O)N2C` [Example 714, (S)—N-(2,4-dimethyl-5-oxo-5,6,7,8-tetrahydro-4H-pyrazolo[1,5-a][1,3]diazepin-6-yl)-4-phenylpyrazolo[1,5-a]pyridine-2-carboxamide], for which the Ki under setting [1] worked out at 0.013 µM. For `CN1C(=O)[C@@H](NC(=O)c2nc3n(n2)CCNC3c2ccccc2)COc2ccccc21` (stereo partly drawn) [Example 723, N-[(3S)-5-methyl-4-oxo-2,3-dihydro-1,5-benzoxazepin-3-yl]-8-phenyl-5,6,7,8-tetrahydro-[1,2,4]triazolo[1,5-a]pyrazine-2-carboxamide], the Ki under setting [1] turned out to be 0.206 µM. In the case of `CN1C(=O)[C@@H](NC(=O)c2nc3n(n2)CCNC3C(F)(F)F)COc2ccccc21` (stereo partly drawn) [Example 731, N—((S)-5-methyl-4-oxo-2,3,4,5-tetrahydrobenzo[b][1,4]oxazepin-3-yl)-8-(trifluoromethyl)-5,6,7,8-tetrahydro-[1,2,4]triazolo[1,5-a]pyrazine-2-carboxamide], the Ki under setting [1] worked out at 0.3 µM. In the case of `CN1C(=O)[C@@H](NC(=O)c2nc3n(n2)[C@H](c2ccccc2)CCC3)COc2ccccc21` [Example 735, (S)—N—((S)-5-methyl-4-oxo-2,3,4,5-tetrahydrobenzo[b][1,4]oxazepin-3-yl)-5-phenyl-5,6,7,8-tetrahydro-[1,2,4]triazolo[1,5-a]pyridine-2-carboxamide], under setting [1], the Ki came out at 0.013 µM. On the same count and under the same terms, the figure for `CN1C(=O)[C@@H](NC(=O)c2ncn(Cc3ccccc3)n2)CCn2nc(CCCN3CCC(F)(F)C3)cc21` [Example 739, 1-benzyl-N-[(6S)-2-[3-(3,3-difluoropyrrolidin-1-yl)propyl]-4-methyl-5-oxo-7,8-dihydro-6H-pyrazolo[1,5-a][1,3]diazepin-6-yl]-1,2,4-triazole-3-carboxamide] is 0.036 µM; for `CN1C(=O)[C@@H](NC(=O)c2ccn(Cc3ccccc3)n2)CCn2nccc21` [Example 740, 1-benzyl-N-[(6S)-4-methyl-5-oxo-7,8-dihydro-6H-pyrazolo[1,5-a][1,3]diazepin-6-yl]pyrazole-3-carboxamide] it is 0.137 µM; for `Cc1cc2n(n1)CC[C@H](NC(=O)c1ccn(Cc3ccccc3)n1)C(=O)N2C` [Example 741, 1-benzyl-N-[(6S)-2,4-dimethyl-5-oxo-7,8-dihydro-6H-pyrazolo[1,5-a][1,3]diazepin-6-yl]pyrazole-3-carboxamide] it is 0.14 µM. In the case of `CN1C(=O)[C@@H](NC(=O)c2cc3c(cn2)CO[C@]3(C)C(F)(F)F)COc2ccccc21` [Example 742, (1S)-1-methyl-N-[(3S)-5-methyl-4-oxo-2,3-dihydro-1,5-benzoxazepin-3-yl]-1-(trifluoromethyl)-3H-furo[3,4-c]pyridine-6-carboxamide], under setting [1], the Ki came out at 0.01 µM. On the same count and under the same terms, the same measure for `CN1C(=O)[C@@H](NC(=O)c2ncc3c(n2)[C@@](C)(C(F)(F)F)OC3)COc2ccccc21` [Example 743, (7S)-7-methyl-N-[(3S)-5-methyl-4-oxo-2,3-dihydro-1,5-benzoxazepin-3-yl]-7-(trifluoromethyl)-5H-furo[3,4-d]pyrimidine-2-carboxamide]: 0.017 µM; for `CN1C(=O)[C@@H](NC(=O)c2cc3c(cn2)CO[C@@]3(C)C(F)(F)F)COc2ccccc21` [Example 744, (1R)-1-methyl-N-[(3S)-5-methyl-4-oxo-2,3-dihydro-1,5-benzoxazepin-3-yl]-1-(trifluoromethyl)-3H-furo[3,4-c]pyridine-6-carboxamide]: 0.01 µM.

`CN1C(=O)[C@@H](NC(=O)c2ncc3c(n2)[C@](C)(C(F)(F)F)OC3)COc2ccccc21` [Example 745, (7R)-7-methyl-N-[(3S)-5-methyl-4-oxo-2,3-dihydro-1,5-benzoxazepin-3-yl]-7-(trifluoromethyl)-5H-furo[3,4-d]pyrimidine-2-carboxamide]: the Ki under setting [1] stood at 0.012 µM. Take `C[C@]1(C(F)(F)F)OCc2cnc(C(=O)N[C@H]3CCc4cc(F)cc(F)c4NC3=O)cc21` [Example 746, (1S)-1-methyl-N-[(3S)-7,9-difluoro-2-oxo-1,3,4,5-tetrahydro-1-benzazepin-3-yl]-1-(trifluoromethyl)-3H-furo[3,4-c]pyridine-6-carboxamide]: the Ki under setting [1] was 0.023 µM. `C[C@]1(C(F)(F)F)OCc2cnc(C(=O)N[C@H]3CCc4cc(F)cc(F)c4NC3=O)nc21` [Example 747, (7S)-7-methyl-N-[(3S)-7,9-difluoro-2-oxo-1,3,4,5-tetrahydro-1-benzazepin-3-yl]-7-(trifluoromethyl)-5H-furo[3,4-d]pyrimidine-2-carboxamide]: under setting [1], the Ki turned out to be 0.042 µM. Take `C[C@@]1(C(F)(F)F)OCc2cnc(C(=O)N[C@H]3CCc4cc(F)cc(F)c4NC3=O)cc21` [Example 748, (1R)-1-methyl-N-[(3S)-7,9-difluoro-2-oxo-1,3,4,5-tetrahydro-1-benzazepin-3-yl]-1-(trifluoromethyl)-3H-furo[3,4-c]pyridine-6-carboxamide]: the Ki under setting [1] worked out at 0.014 µM. With `C[C@@]1(C(F)(F)F)OCc2cnc(C(=O)N[C@H]3CCc4cc(F)cc(F)c4NC3=O)nc21` [Example 749, (7R)-7-methyl-N-[(3S)-7,9-difluoro-2-oxo-1,3,4,5-tetrahydro-1-benzazepin-3-yl]-7-(trifluoromethyl)-5H-furo[3,4-d]pyrimidine-2-carboxamide], the Ki under setting [1] is 0.012 µM. For the molecule `Cc1cc2n(n1)CC[C@H](NC(=O)c1cn(Cc3ccccc3)cn1)C(=O)N2C` [Example 751, 1-benzyl-N-[(6S)-2,4-dimethyl-5-oxo-7,8-dihydro-6H-pyrazolo[1,5-a][1,3]diazepin-6-yl]imidazole-4-carboxamide], the Ki under setting [1] is 0.044 µM. `CN1C(=O)[C@@H](NC(=O)c2ncn(Cc3ccccc3)n2)CCn2nc(CCN3CCOCC3)cc21` [Example 752, 1-benzyl-N-[(6S)-4-methyl-2-(2-morpholinoethyl)-5-oxo-7,8-dihydro-6H-pyrazolo[1,5-a][1,3]diazepin-6-yl]-1,2,4-triazole-3-carboxamide]: the Ki under setting [1] is 0.116 µM. In the case of `CN1C(=O)[C@@H](NC(=O)c2ncn(Cc3ccccc3F)n2)CCn2nc(CCN3CCOCC3)cc21` [Example 753], the Ki under setting [1] came out at 0.074 µM. In turn, `CN1C(=O)[C@@H](NC(=O)c2ncn(Cc3ccccc3)n2)CCn2nc(C3CNC3)cc21` [Example 754, 1-benzyl-N-[(6S)-2-(azetidin-3-yl)-4-methyl-5-oxo-7,8-dihydro-6H-pyrazolo[1,5-a][1,3]diazepin-6-yl]-1,2,4-triazole-3-carboxamide] had a Ki (Ki) of 0.411 µM.

Regarding `COCCOCCc1cc2n(n1)CC[C@H](NC(=O)c1ncn(Cc3ccccc3)n1)C(=O)N2C` [Example 755, 1-benzyl-N-[(6S)-2-[2-(2-methoxyethoxy)ethyl]-4-methyl-5-oxo-7,8-dihydro-6H-pyrazolo[1,5-a][1,3]diazepin-6-yl]-1,2,4-triazole-3-carboxamide], the Ki under setting [1] was 0.124 µM.

Take `CN1C(=O)[C@@H](NC(=O)c2ncn(Cc3ccccc3)n2)CCn2nc(CCN3CCC3)cc21` [Example 756]: the Ki under setting [1] was found to be 0.623 µM. Still for that read-out and setting: the same measure for `COC1CN(CCc2cc3n(n2)CC[C@H](NC(=O)c2ncn(Cc4ccccc4)n2)C(=O)N3C)C1` [Example 757]: 0.168 µM; for `CCOCCc1cc2n(n1)CC[C@H](NC(=O)c1ncn(Cc3ccccc3)n1)C(=O)N2C` [Example 758]: 0.086 µM.

Turning to `CN1C(=O)[C@@H](NC(=O)c2ncn(Cc3ccccc3)n2)CCn2nc(C3CN(C(=O)OC(C)(C)C)C3)cc21` [Example 759], the Ki under setting [1] was determined as 0.024 µM. The same measure, in the same setting: the figure for `COCCOCCc1cc2n(n1)CC[C@H](NC(=O)c1ncn(Cc3ccccc3F)n1)C(=O)N2C` [Example 760, 1-[(2-fluorophenyl)methyl]-N-[(6S)-2-[2(2-methoxyethoxy)ethyl]-4-methyl-5-oxo-7,8-dihydro-6H-pyrazolo[1,5-a][1,3]diazepin-6-yl]-1,2,4-triazole-3-carboxamide] is 0.077 µM. The same measure, in the same setting: the figure for `CN1C(=O)[C@@H](NC(=O)c2ncn(Cc3ccccc3)n2)CCn2nc(CCN3CC4CC3CO4)cc21` (stereo partly drawn) [Example 761, 1-benzyl-N-[(6S)-4-methyl-2-[2-(2-oxa-5-azabicyclo[2.2.1]heptan-5-yl)ethyl]-5-oxo-7,8-dihydro-6H-pyrazolo[1,5-a][1,3]diazepin-6-yl]-1,2,4-triazole-3-carboxamide] is 0.159 µM; for `CN1C(=O)[C@@H](NC(=O)c2ncn(Cc3ccccc3F)n2)CCn2nc(CCN3CC4CC3CO4)cc21` (some centres unmarked) [Example 762] it is 0.182 µM. Same read-out and setting: the figure for `CCOCCc1cc2n(n1)CC[C@H](NC(=O)c1ncn(Cc3ccccc3F)n1)C(=O)N2C` [Example 763] is 0.073 µM.
